Laboratory results from patent US9057090B2, “Method of identifying an agent for inhibiting odor of pyrazine derivatives” (Kao Corporation, priority 2012, dated 2015).

Target: T1, olfactory receptor OR5K1 (Homo sapiens, UniProt Q8NHB7)
T1 construct: expressed in transfected cells; host or cells: HEK293
T1 sequence (Q8NHB7 1-308): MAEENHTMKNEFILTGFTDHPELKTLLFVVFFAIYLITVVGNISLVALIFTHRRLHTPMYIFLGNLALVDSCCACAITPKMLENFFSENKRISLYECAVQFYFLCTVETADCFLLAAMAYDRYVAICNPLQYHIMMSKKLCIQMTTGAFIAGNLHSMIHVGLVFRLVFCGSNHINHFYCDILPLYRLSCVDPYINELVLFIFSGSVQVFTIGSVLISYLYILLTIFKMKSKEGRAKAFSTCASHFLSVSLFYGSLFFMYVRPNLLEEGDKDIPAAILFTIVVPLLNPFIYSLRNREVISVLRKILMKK
Assay: Luciferase reporter gene assay: response of olfactory receptor to pyrazine derivatives
Assay type: cell-based
Settings: for response of OR5K1, dependency on concentration: 0, 3, 10, 30, 100, 300 and 1000 μM, HEK293 cells expressing OR5K1 with RTP1S variant, FIG. 2
Method: HEK293 cells expressing 373 types of human olfactory receptors were produced. A reaction solution having a composition shown in Table 1 was prepared and left to stand in a clean bench for 15 min and then was dispensed in each well of a 96-well plate (Becton, Dickinson and Company). Subsequently, HEK293 cells (100 μL, 3×10^5 cells/cm^2) were seeded in each well and cultured in an incubator at 37° C. and 5% CO2 for 24 hr.
An olfactory receptor expressed in HEK293 cells couples with endogenous Gas in the cells to activate adenylate cyclase and thereby increases the amount of intracellular cAMP. In this study, the response of a pyrazine derivative was measured by luciferase reporter gene assay which monitors an increase in the amount of intracellular cAMP as the luminescence value derived from a firefly luciferase gene (fluc2P-CRE-hygro). A Renilla luciferase gene was fused downstream of a CMV promoter (hRluc-CMV) and was also introduced to HEK293 cells as an internal standard to correct errors in transgenic efficiency and number of cells.
The culture medium was removed from the culture produced in the above 3), and 75 μL of a solution prepared with a CD293 medium (Invitrogen Inc.) so as to contain a pyrazine derivative (1 mM 2,6-dimethylpyrazine) was added thereto. The cells were cultured in a CO2 incubator for 2.5 hr to sufficiently express the luciferase gene in the cells. The luciferase activity was measured with a Dual-Glo™ luciferase assay system (Promega Corporation) in accordance with the operating manual of the system. The fold increases were calculated by dividing the luminescence value derived from firefly luciferase induced by stimulation with a pyrazine derivative at each concentration by the luminescence value in cells not stimulated with the pyrazine derivative and were used as an index of response strength.
Olfactory receptor OR5K1 (SEQ ID NO: 2) was expressed in HEK293 cells together with an RTP1S variant (SEQ ID NO: 4) by the same procedure as in Example 1, and the dependency of the response on the concentration (0, 3, 10, 30, 100, 300, and 1000 μM) of various pyrazine compounds was investigated. The pyrazine compounds used in this Example were pyrazine and pyrazine derivatives selected from the group consisting of 2-methylpyrazine, 2,3-dimethylpyrazine, 2,5-dimethylpyrazine, 2,3,5-trimethylpyrazine, 2,3,5,6-tetramethylpyrazine and 2-ethylpyrazine.

response of OR5K1, dependency on concentration	response of the 373 types of olfactory receptors to the pyrazine derivative (1 mM, HEK293 cells expressing human olfactory receptors, FIG. 1)	SMILES
responded in a dose-dependent manner	only olfactory receptor OR5K1 responded	Cc1cncc(C)n1 [2,6-dimethylpyrazine]
responded in a dose-dependent manner		Cc1cnccn1 [2-methylpyrazine]
did not respond		c1cnccn1 [pyrazine]

SMILES	response of OR5K1, dependency on concentration	response of the 373 types of olfactory receptors to the pyrazine derivative (1 mM, HEK293 cells expressing human olfactory receptors, FIG. 1)
CCc1cnccn1 [2-ethylpyrazine]	responded in a dose-dependent manner	
